Measured values reported in patent US8383616B2, “Aryl isoxazole compounds with antitumoural activities” (Sigma-Tau Industrie Farmaceutiche Riunite SpA, priority 2008, dated 2013).
Counter-ions that a name gives are not always drawn.

Assays:
[1] = tested on: NCI-H460 non-small cell lung carcinoma cells; test: Cytotoxicity assay (sulphorodamine B test), NCI-H460; format: cell-based
Method: To evaluate the effect of the compounds on cells survival, the sulphorodamine B test was used. To test the effects of the compounds on cell growth, NCI-H460 non-small cell lung carcinoma cells were used. Tumour cells were grown in RPMI 1640 containing 10% fetal bovine serum (GIBCO).
(§1) Tumour cells were seeded in 96-well tissue culture plates at approximately 10% confluence and were allowed to attach and recover for at least 24 h. Varying concentrations of the drugs were then added to each well to calculate their IC50 value (the concentration which inhibits the 50% of cell survival). The plates were incubated at 37° C. for 72 h. At the end of the treatment, the plates were washed by removal of the supernatant and addition of phosphate buffered saline (PBS) 3 times. 200 μl PBS and 50 μl of cold 80% trichloroacetic acid (TCA) were added. The plates were incubated on ice for at least 1 h. TCA was removed, the plates were washed 3 times by immersion in distilled water and dried on paper and at 40° C. for 5 min. Then 200 μl of 0.4% sulphorodamine B in 1% acetic acid were added. The plates were incubated at RT for 30 min. Sulphorodamine B was removed, the plates were washed by immersion in 1% acetic acid for 3 times, then they were dried on paper and at 40° C. for 5 min. Then, 200 μl Tris 10 mM were added, the plates were kept under stirring for 20 min. The cell survival was determined as optical density by a Multiskan spectrofluorimeter at 540 nm. The amount of cells killed was calculated as the percentage decrease in sulphorodamine B binding compared with control cultures.
(§2) The IC50 values were calculated with the “ALLFIT” program.
(§3) The antiproliferative IC50 was evaluated as drug concentration required for 50% reduction of cell growth as compared with untreated controls after 72-h exposure to the drug. The IC50±SD values reported were calculated by ALLFIT program.

[2] = tested on: human epithelial carcinoma cell line A431; test: Cytotoxicity assay (sulphorodamine B test), A431; format: cell-based
Method: as §1, §2
The antiproliferative activity of novel Hsp90 inhibitors was evaluated on NCI-H460 non-small cell lung carcinoma cells and on a human epithelial carcinoma cell line A431.
as §3

Hsp90 = target: T1, Hsp90 (Homo sapiens, UniProt P07900); test: Fluorescence polarization (FP) binding assay, displacement of GM-BODIPY; conditions: GM-BODIPY tracer, 125 nM Hsp90, 4 h at 4° C.; read-out: F.P. binding assay IC50
T1 construct: purchased Stressgen SPP-776
Method: Fluorescence Polarization (FP)
GM-BODIPY (PerkinElmer, CUSN60342000MG) was previously dissolved in DMSO to obtain 10 mM stock solutions and kept at −20° C. until use.
The compounds were previously dissolved in DMSO to obtain stock solutions and kept at −20° C. The day of experiment, the compounds were prepared by serial dilutions in HFB. Before each use, 0.1 mg/ml Bovine Gamma globulin and 2 mM DTT were freshly added.
The plate was mixed on a shaker at 4° C. for 4 hours, and the FP values in mP (millipolarization units) were recorded. […] Curve fitting was performed using Prism GraphPad software program (GraphPad software, Inc., San Diego, Calif.).
Curve fitting was performed using Prism GraphPad software program (GraphPad software, Inc., San Diego, Calif.).

[3] = Homo sapiens, NCI-H460, 72-h exposure
[4] = Homo sapiens, A-431, 72-h exposure

| Compound | IC50 ([1]; 72-h exposure) [nM] | IC50 ([2]; 72-h exposure) [nM] | IC50 (Hsp90) [nM] | IC50 [1, 3] [nM] | IC50 [2, 4] [nM] |
| --- | --- | --- | --- | --- | --- |
| 5-(2,4-dihydroxy-5-isopropyl-phenyl)-4-(4-morpholin-4-yl-methyl-benzoyl amino)-isoxazole-3-carboxylic acid ethylamide hydrochloride [Example 18] | < 100 | < 100 | < 100 | – | – |
| CCNC(=O)c1noc(-c2cc(Cl)c(O)cc2O)c1NC(C)=O [Example 1, 4-acetylamino-5-(5-chloro-2,4-dihydroxy-phenyl)-isoxazole-3-carboxylic acid ethylamide] | – | – | < 100 | 1000 to 10000 | 1000 to 10000 |
| CCNC(=O)c1noc(-c2cc(Cl)c(O)cc2O)c1NC(=O)c1ccc(OC)cc1 [Example 2, 5-(5-chloro-2,4-dihydroxy-phenyl)-4-(4-methoxy-benzoylamino)-isoxazole-3-carboxylic acid ethylamide] | – | – | 100 to 1000 | 1000 to 10000 | 100 to 1000 |
| CCNC(=O)c1noc(-c2cc(Cl)c(O)cc2O)c1NC(=O)c1ccc(OC)c(OC)c1 [Example 3, 5-(5-chloro-2,4-dihydroxy-phenyl)-4-(3,4-dimethoxy-benzoylamino)-isoxazole-3-carboxylic acid ethylamide] | – | – | 100 to 1000 | 1000 to 10000 | 100 to 1000 |
| CCNC(=O)c1noc(-c2cc(Cl)c(O)cc2O)c1NC(=O)c1cc(OC)c(OC)c(OC)c1 [Example 4, 5-(5-chloro-2,4-dihydroxy-phenyl)-4-(3,4,5-trimethoxy-benzoylamino)-isoxazole-3-carboxylic acid ethylamide] | – | – | 100 to 1000 | 100 to 1000 | 100 to 1000 |
| CCNC(=O)c1noc(-c2cc(Cl)c(O)cc2O)c1NC(=O)C(C)(C)C [Example 5, 5-(5-chloro-2,4-dihydroxy-phenyl)-4-(2,2-dimethyl-propionylamino)-isoxazole-3-carboxylic acid ethylamide] | – | – | < 100 | 100 to 1000 | < 100 |
| CCNC(=O)c1noc(-c2cc(Cl)c(O)cc2O)c1NC(=O)C12CC3CC(CC(C3)C1)C2 [Example 6, 4-[(adamantane-1-carbonyl)-amino]-5-(5-chloro-2,4-dihydroxy-phenyl)-isoxazole-3-carboxylic acid ethylamide] | – | – | 100 to 1000 | 100 to 1000 | 100 to 1000 |
| C=CC(=O)Nc1c(C(=O)NCC)noc1-c1cc(Cl)c(O)cc1O [Example 7, 4-acryloylamino-5-(5-chloro-2,4-dihydroxy-phenyl)-isoxazole-3-carboxylic acid ethylamide] | – | – | 100 to 1000 | 1000 to 10000 | 100 to 1000 |
| CCNC(=O)c1noc(-c2cc(Cl)c(O)cc2O)c1NC(=O)c1sccc1C [Example 8, 5-(5-chloro-2,4-dihydroxy-phenyl)-4-[(3-methyl-thiophene-2-carbonyl)-amino]-isoxazole-3-carboxylic acid ethylamide] | – | – | < 100 | 100 to 1000 | < 100 |
| CCNC(=O)c1noc(-c2cc(Cl)c(O)cc2O)c1NC(=O)CCN1CCOCC1 [Example 9, 5-(5-chloro-2,4-dihydroxy-phenyl)-4-(3-morpholin-4-yl-propionylamino)-isoxazole-3-carboxylic acid ethylamide] | – | – | 100 to 1000 | 100 to 1000 | 100 to 1000 |
| CCNC(=O)c1noc(-c2cc(Cl)c(O)cc2O)c1NC(=O)c1ccc(Br)cc1 [Example 10, 4-(4-bromo-benzoylamino)-5-(5-chloro-2,4-dihydroxy-phenyl)-isoxazole-3-carboxylic acid ethylamide] | – | – | 100 to 1000 | 1000 to 10000 | 100 to 1000 |
| CCNC(=O)c1noc(-c2cc(C(C)C)c(O)cc2O)c1NC(=O)c1ccc(OC)cc1 [Example 11, 5-(2,4-dihydroxy-5-isopropyl-phenyl)-4-(4-methoxy-benzoylamino)-isoxazole-3-carboxylic acid ethylamide] | – | – | 100 to 1000 | < 100 | – |
| CCNC(=O)c1noc(-c2cc(C(C)C)c(O)cc2O)c1NC(C)=O [Example 12, 4-acetylamino-5-(2,4-dihydroxy-5-isopropyl-phenyl)-isoxazole-3-carboxylic acid ethylamide] | – | – | < 100 | < 100 | – |
| CCNC(=O)c1noc(-c2cc(C(C)C)c(O)cc2O)c1NC(=O)C(C)(C)C [Example 13, 5-(2,4-dihydroxy-5-isopropyl-phenyl)-4-(2,2-dimethyl-propionylamino)-isoxazole-3-carboxylic acid ethylamide] | – | – | < 100 | < 100 | – |
| CCNC(=O)c1noc(-c2cc(C(C)C)c(O)cc2O)c1NC(=O)c1sccc1C [Example 14, 5-(2,4-dihydroxy-5-isopropyl-phenyl)-4-[(3-methyl-thiophene-2-carbonyl)-amino]-isoxazole-3-carboxylic acid ethylamide] | – | – | < 100 | < 100 | < 100 |
| CCNC(=O)c1noc(-c2cc(C(C)C)c(O)cc2O)c1NC(=O)CCN1CCOCC1 [Example 15, 5-(2,4-dihydroxy-5-isopropyl-phenyl)-4-(3-morpholin-4-yl-propionylamino)-isoxazole-3-carboxylic acid ethylamide] | – | – | 100 to 1000 | 100 to 1000 | – |
| CCNC(=O)c1noc(-c2cc(C(C)C)c(O)cc2O)c1NC(=O)CCN1CCN(C)CC1 [Example 16, 4-(3-(4-methylpiperazin-1-yl)propanamido)-N-ethyl-5-(2,4-dihydroxy-5-isopropylphenyl)-isoxazole-3-carboxamide] | – | – | 100 to 1000 | 1000 to 10000 | 100 to 1000 |
| CCNC(=O)c1noc(-c2cc(C(C)C)c(O)cc2O)c1NC(=O)c1ccc2cc[nH]c2c1 [Example 17, 1H-indole-6-carboxylic acid [5-(2,4-dihydroxy-5-isopropyl-phenyl)-3-ethylcarbamoyl-isoxazol-4-yl]-amide] | – | – | < 100 | 100 to 1000 | 100 to 1000 |
| CCNC(=O)c1noc(-c2cc(C(C)C)c(O)cc2O)c1NC(=O)C1CCCCC1 [Example 19, 4-(cyclohexanecarbonyl-amino)-5-(2,4-dihydroxy-5-isopropyl-phenyl)-isoxazole-3-carboxylic acid ethylamide] | – | – | 100 to 1000 | < 100 | < 100 |
| CCNC(=O)c1noc(-c2cc(C(C)C)c(O)cc2O)c1NC(=O)C1CCC(OC)CC1 (stereo not drawn) [Example 23, 5-(2,4-dihydroxy-5-isopropyl-phenyl)-4-[(4-methoxy-cyclohexanecarbonyl)-amino]-isoxazole-3-carboxylic acid ethylamide] | – | – | < 100 | < 100 | – |
| CCNC(=O)c1noc(-c2cc(C(C)C)c(O)cc2O)c1NC(=O)C1CCC(C(C)(C)C)CC1 (stereo not drawn) [Example 24, 4-[(4-tert-butyl-cyclohexanecarbonyl)-amino]-5-(2,4-dihydroxy-5-isopropyl-phenyl)-isoxazole-3-carboxylic acid ethylamide] | – | – | < 100 | 100 to 1000 | – |
| CCNC(=O)c1noc(-c2cc(C(C)C)c(O)cc2O)c1NC(=O)[C@H]1CC[C@H](N)CC1 [Example 25, 4-[(trans-4-amino-cyclohexanecarbonyl)-amino]-5-(2,4-dihydroxy-5-isopropyl-phenyl)-isoxazole-3-carboxylic acid ethylamide hydrochloride] | – | – | < 100 | 1000 to 10000 | – |
| CCNC(=O)c1noc(-c2cc(C(C)C)c(O)cc2O)c1NC(=O)[C@H]1CC[C@H](CN)CC1 [Example 26, 4-[(trans-4-aminomethyl-cyclohexanecarbonyl)-amino]-5-(2,4-dihydroxy-5-isopropyl-phenyl)-isoxazole-3-carboxylic acid ethylamide hydrochloride] | – | – | < 100 | 1000 to 10000 | – |
| COc1ccc(C(=O)Nc2c(C(=O)N3CC(F)(F)C3)noc2-c2cc(Cl)c(O)cc2O)cc1 [Example 34, 4-(4-methoxybenzamido)-5-(5-chloro-2,4-dihydroxyphenyl)-isoxazol-3-yl-(3,3-difluoroazetidin-lyl)-methanone] | – | – | – | > 10000 | > 10000 |
